Read-outs that look alike come from different tables or passages of the source.
Legend:
[1] = test system: peripheral nasal chemosensory receptors; conditions: androstadienone 27 picograms, muricin aglycone 30 picograms; adapted from Monti-Bloch et al. (1994); cited from earlier work
humans = conditions: Grosser et al., 2000, cited from earlier work; for Effect on negative affect / negativity: administered nasally to humans

Question: For C[C@@]12C=CC[C@H]1[C@@H]1CCC3=CC(=O)CC[C@]3(C)[C@H]1CC2 [androstadienone, androsta-4,16-dien-3-one], which “Depolarization of the electrogram of peripheral nasal chemosensory receptors” value [1] is on record?
Answer: robust depolarization

Question: And the “Effect on negative affect / negativity” value (humans)?
Answer: decreased negativity

Question: What about the “Effect on negative affect / negativity” value (humans; listed as Androsta-4,16-dien-3-one) of the same compound?
Answer: reduction of negative affect

Question: What about the “Effect on social warmth and friendliness, personal well-being and arousal/excitement” value (humans; humans) of the same compound?
Answer: no effect

Question: With C=C[C@H]1CC[C@H]2[C@@H]3CC[C@H]4CC(=O)C=C[C@]4(C)[C@H]3CC[C@]12C as the compound, how does the melting point read?
Answer: 124 to 126 °C

From patent publication US20140045805A1, “Fragrance Compositions and Other Compositions Which Contain Naturally Occurring Substances Found in Corals” (priority 2007, published 2014)
